Laboratory results from patent EP1680415B1, “PYRROLIDINYL UREA DERIVATIVES AS ANGIOGENESIS INHIBITORS” (ABBOTT LABORATORIES, priority 2003, dated 2005).

System: HMVEC
Assay: human microvascular endothelial (HMVEC) migration assay
Type: cell-based
Conditions: Homo sapiens, Inhibition of HMVEC migration, activators 15 ng/mL bFGF/VEGF, 4 hours at 37 °C, compared to a positive control; for inhibition at 0.0001 µM: 0.1 nM; for inhibition at 0.001 µM: 1 nM; for inhibition at 10 pM: 0.01 nM
Method: The human microvascular endothelial (HMVEC) migration assay was run according to the procedure of S. S. Tolsma, O. V. Volpert, D. J. Good, W. F. Frazier, P. J. Polverini and N. Bouck, J. Cell Biol. 122, 497-511 (1993).
The HMVEC migration assay was carried out using Human Microvascular Endothelial Cells-Dermal (single donor) and Human Microvascular Endothelial Cells, (neonatal). The BCE or HMVEC cells were starved overnight in DME containing 0.01% bovine serum albumin (BSA). Cells were then harvested with trypsin and resuspended in DME with 0.01 % BSA at a concentration of 1.5 X 10^6 cells per mL. Cells were added to the bottom of a 48 well modified Boyden chamber (Nucleopore Corporation, Cabin John, MD). The chamber was assembled and inverted, and cells were allowed to attach for 2 hours at 37 °C to polycarbonate chemotaxis membranes (5 µm pore size) that had been soaked in 0.01 % gelatin overnight and dried. The chamber was then reinverted, and test substances (total volume of 50 µL), including activators, 15 ng/mL bFGF/VEGF, were added to the wells of the upper chamber. The apparatus was incubated for 4 hours at 37 °C. Membranes were recovered, fixed and stained (Diff Quick, Fisher Scientific) and the number of cells that had migrated to the upper chamber per 3 high power fields counted. Background migration to DME + […] was subtracted and the data reported as the number of cells migrated per 10 high power fields (400X) or, when results from multiple experiments were combined, as the percent inhibition of migration compared to a positive control.

Row | SMILES | inhibition at 0.0001 µM [%] | further results
1 | CCCN(C(=O)N[C@@H]1CCN(C(=O)c2ccc(C)nc2)C1)C(C)C [Example 64, N-isopropyl-N'-{(3R)-1-[(6-methylpyridin-3-yl)carbonyl]pyrrolidin-3-yl}-N-propylurea] | 70 | 
2 | CCCN(C(=O)N[C@@H]1CCN(C(=O)c2ccc(C)nc2)C1)C(C)CC (stereo partly drawn) [Example 65, N-(sec-butyl)-N'-{(3R)-1-[(6-methylpyridin-3-yl)carbonyl]pyrrolidin-3-yl}-N-propylurea] |  | inhibition at 0.001 µM: 98%
3 | CCCCN(CCCC)C(=O)N[C@@H]1CCN(C(=O)c2ccc(C)nc2)C1 [Example 66, N,N-dibutyl-N'-{(3R)-1-[(6-methylpyridin-3-yl)carbonyl]pyrrolidin-3-yl} urea] | 84 | 
4 | Cc1ccc(C(=O)N2CC[C@@H](NC(=O)N(CCC#N)C3CC3)C2)cn1 [Example 67, N-(2-cyanoethyl)-N-cyclopropyl-N'-{(3R)-1-[(6-methylpyridin-3-yl)carbonyl]pyrrolidin-3-yl}urea] | 73 | 
5 | CCC1CCCCN1C(=O)N[C@@H]1CCN(C(=O)c2ccc(C)nc2)C1 (stereo partly drawn) [Example 68, 2-ethyl-N-{(3R)-1-[(6-methylpyridin-3-yl)carbonyl]pyrrolidin-3-yl}piperidine-1-carboxamide] |  | inhibition at 0.001 µM: 46%
6 | CCCC1CCN(C(=O)N[C@@H]2CCN(C(=O)c3ccc(C)nc3)C2)CC1 [Example 69, N-{(3R)-1-[(6-methylpyridin-3-yl)carbonyl]pyrrolidin-3-yl} -4-propylpiperidine-1-carboxamide] | 87 | 
7 | Cc1ccc(C(=O)N2CC[C@@H](NC(=O)N3CCCCCC3)C2)cn1 [Example 70, N-{(3R)-1-[(6-methylpyridin-3-yl)carbonyl]pyrrolidin-3-yl}azepane-1-carboxamide] | 97 | 
8 | CCN(CCOC)C(=O)N[C@@H]1CCN(C(=O)c2ccc(C)nc2)C1 [Example 71, N-ethyl-N-(2-methoxyethyl)-N'-{(3R)-1-[(6-methylpyridin-3-yl)carbonyl]pyrrolidin-3-yl}urea] | 53 | 
9 | CCCN(CCOC)C(=O)N[C@@H]1CCN(C(=O)c2ccc(C)nc2)C1 [Example 72, N-(2-methoxyethyl)-N'-{(3R)-1-[(6-methylpyridin-3-yl)carbonyl]pyrrolidin-3-yl}-N-propylurea] | 89 | 
10 | COCCN(CCOC)C(=O)N[C@@H]1CCN(C(=O)c2ccc(C)nc2)C1 [Example 73, N,N-bis(2-methoxyethyl)-N'-{(3R)-1-[(6-methylpyridin-3-yl)carbonyl]pyrrolidin-3-yl}urea] | 71 | 
11 | Cc1ccc(C(=O)N2CC[C@@H](NC(=O)N3CC4(C)CC3CC(C)(C)C4)C2)cn1 (stereo partly drawn) [Example 74, 1,3,3-trimethyl-N-{(3R)-1-[(6-methylpyridin-3-yl)carbonyl]pyrrolidin-3-yl}-6-azabicyclo[3.2.1]octane-6-carboxamide] | 68 | 
12 | Cc1ccc(C(=O)N2CC[C@@H](NC(=O)N(C)CCc3ccccc3)C2)cn1 [Example 75, N-methyl-N'-{(3R)-1-[(6-methylpyridin-3-yl)carbonyl]pyrrolidin-3-yl}-N-(2-phenylethyl)urea] |  | inhibition at 0.001 µM: 76%
13 | CCC(C)N1CCN(C(=O)N[C@@H]2CCN(C(=O)c3ccc(C)nc3)C2)CC1 (stereo partly drawn) [Example 76, 4-sec-butyl-N-{(3R)-1-[(6-methylpyridin-3-yl)carbonyl]pyrrolidin-3-yl}piperazine-1-carboxamide] | 58 | 
14 | CCOCCN1CCN(C(=O)N[C@@H]2CCN(C(=O)c3ccc(C)nc3)C2)CC1 [Example 77, 4-(2-ethoxyethyl)-N-{(3R)-1-[(6-methylpyridin-3-yl)carbonyl]pyrrolidin-3-yl}piperazine-1-carboxamide] | 58 | 
15 | Cc1ccc(C(=O)N2CC[C@@H](NC(=O)N3CCN(C4CCCCC4)CC3)C2)cn1 [Example 78, 4-cyclohexyl-N-{(3R)-1-[(6-methylpyridin-3-yl)carbonyl]pyrrolidin-3-yl}piperazine-1-carboxamide] | 67 | 
16 | Cc1ccc(C(=O)N2CC[C@@H](NC(=O)N3CCN(CCc4cccs4)CC3)C2)cn1 [Example 79, N-{(3R)-1-[(6-methylpyridin-3-yl)carbonyl]pyrrolidin-3-yl}-4-(2-thien-2-ylethyl)piperazine-1-carboxamide] | 48 | 

Row | SMILES | inhibition at 0.0001 µM [%] | further results
17 | Cc1ccc(C(=O)N2CC[C@@H](NC(=O)N3CCN(CC(=O)N4CCCCC4)CC3)C2)cn1 [Example 80, N-{(3R)-1-[(6-methylpyridin-3-yl)carbonyl]pyrrolidin-3-yl}-4-(2-oxo-2-piperidin-1-ylethyl)piperazine-1-carboxamide] | 73 | 
18 | Cc1ccc(C(=O)N2CC[C@@H](NC(=O)N3CCN(C(=O)C4CCCCC4)CC3)C2)cn1 [Example 81, 4-(cyclohexylcarbonyl)-N-{(3R)-1-[(6-methylpyridin-3-yl)carbonyl]pyrrolidin-3-yl}piperazine-1-carboxamide] | 55 | 
19 | Cc1ccc(C(=O)N2CC[C@@H](NC(=O)N(CCO)Cc3ccccc3)C2)cn1 [Example 82, N-benzyl-N-(2-hydroxyethyl)-N'-{(3R)-1-[(6-methylpyridin-3-yl)carbonyl]pyrrolidin-3-yl}urea] | 57 | 
20 | Cc1ccc(C(=O)N2CCC(NC(=O)N(C)CC(O)c3ccccc3)C2)cn1 (centres unmarked) [Example 83, N-(2-hydroxy-2-phenylethyl)-N-methyl-N'-{1-[(6-methylpyridin-3-yl)carbonyl]pyrrolidin-3-yl}urea] | 80 | 
21 | Cc1ccc(C(=O)N2CC[C@@H](NC(=O)N(C)CCc3ccccn3)C2)cn1 [Example 84, N-methyl-N'-{(3R)-1-[(6-methylpyridin-3-yl)carbonyl]pyrrolidin-3-yl}-N-(2-pyridin-2-ylethyl)urea] | 62 | 
22 | Cc1ccc(C(=O)N2CC[C@@H](NC(=O)N3CCC(O)CC3)C2)cn1 [Example 85, 4-hydroxy-N-{(3R)-1-[(6-methylpyridin-3-yl)carbonyl]pyrrolidin-3-yl}piperidine-1-carboxamide] | 55 | 
23 | Cc1ccc(C(=O)N2CC[C@@H](NC(=O)N3CCC(C(N)=O)CC3)C2)cn1 [Example 86, N^1-{(3R)-1-[(6-methylpyridin-3-yl)carbonyl]pyrrolidin-3-yl}piperidine-1,4-dicarboxamide] | 74 | 
24 | Cc1ccc(C(=O)N2CC[C@@H](NC(=O)N3CCC4(CC3)OCCO4)C2)cn1 [Example 87, N-{(3R)-1-[(6-methylpyridin-3-yl)carbonyl]pyrrolidin-3-yl}-1,4-dioxa-8-azaspiro[4.5]decane-8-carboxamide] | 55 | 
25 | Cc1ccc(C(=O)N2CC[C@@H](NC(=O)N3CC(C)OC(C)C3)C2)cn1 (stereo partly drawn) [Example 88, 2,6-dimethyl-N-{(3R)-1-[(6-methylpyridin-3-yl)carbonyl]pyrrolidin-3-yl}morpholine-4-carboxamide] |  | inhibition at 10 pM: 81%
26 | Cc1ccc(C(=O)N2CC[C@@H](NC(=O)N3CCN(c4ccccc4)CC3)C2)cn1 [Example 89, N-{(3R)-1-[(6-methylpyridin-3-yl)carbonyl]pyrrolidin-3-yl}-4-phenylpiperazine-1-carboxamide] | 62 | 
27 | Cc1ccc(C(=O)N2CC[C@@H](NC(=O)N3CCN(c4ccccn4)CC3)C2)cn1 [Example 90, N-{(3R)-1-[(6-methylpyridin-3-yl)carbonyl]pyrrolidin-3-yl}-4-pyridin-2-ylpiperazine-1-carboxamide] |  | inhibition at 10 pM: 52%
28 | Cc1ccc(C(=O)N2CC[C@@H](NC(=O)N3CCN(c4ccccc4F)CC3)C2)cn1 [Example 91, 4-(2-fluorophenyl)-N-{(3R)-1-[(6-methylpyridin-3-yl)carbonyl]pyrrolidin-3-yl}piperazine-1-carboxamide] |  | inhibition at 10 pM: 57%
29 | Cc1ccc(C(=O)N2CC[C@@H](NC(=O)N3CCN(c4ccc(F)cc4)CC3)C2)cn1 [Example 92, 4-(4-fluorophenyl)-N-{(3R)-1-[(6-methylpyidin-3-yl)carbonyl]pyrrolidin-3-yl}piperazine-1-carboxamide] |  | inhibition at 10 pM: 67%
30 | COc1ccccc1N1CCN(C(=O)N[C@@H]2CCN(C(=O)c3ccc(C)nc3)C2)CC1 [Example 93, 4-(2-methoxyphenyl)-N-{(3R)-1-[(6-methylpyridin-3-yl)carbonyl]pyrrolidin-3-yl}piperazine-1-carboxamide] | 72 | 
31 | CCOC(=O)CN1CCN(C(=O)N[C@@H]2CCN(C(=O)c3ccc(C)nc3)C2)CC1 [Example 95, ethyl {4-[({(3R)-1-[(6-methylpyridin-3-yl)carbonyl]pyrrolidin-3-yl}amino)carbonyl]piperazin-1-yl} acetate] |  | inhibition at 10 pM: 62%
32 | Cc1ccc(C(=O)N2CC[C@@H](NC(=O)N3CCN(c4ccc([N+](=O)[O-])cc4)CC3)C2)cn1 [Example 96, N-{(3R)-1-[(6-methylpyridin-3-yl)carbonyl]pyrrolidin-3-yl}-4-(4-nitrophenyl)piperazine-1-carboxamide] | 75 | 
